pIC50: −log10 of the molar value. Active and inactive are the calls of the source. The rule behind the calls is not given here.
Columns and labels:
Aurora kinase A [1] = molecular target: T1, Aurora kinase A (Homo sapiens, UniProt O14965); experiment: Inhibition of recombinant human Aurora A (1 to 403 residues) expressed in Escherichia coli using STK-substrate 2-biotin as substrate incubated for 15 mins in presence of 24 uM ATP by HTRF assay
T1 sequence (O14965 whole entry): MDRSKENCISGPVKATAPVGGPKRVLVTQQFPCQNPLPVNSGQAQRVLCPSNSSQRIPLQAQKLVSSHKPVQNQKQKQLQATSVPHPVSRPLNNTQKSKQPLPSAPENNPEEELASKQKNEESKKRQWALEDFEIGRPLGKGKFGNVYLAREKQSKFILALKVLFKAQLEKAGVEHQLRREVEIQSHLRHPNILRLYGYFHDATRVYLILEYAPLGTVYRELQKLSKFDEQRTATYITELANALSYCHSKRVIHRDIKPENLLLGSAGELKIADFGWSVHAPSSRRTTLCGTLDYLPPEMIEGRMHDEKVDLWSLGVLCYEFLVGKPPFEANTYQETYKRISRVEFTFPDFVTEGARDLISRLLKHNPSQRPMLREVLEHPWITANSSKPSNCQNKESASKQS

MDA-MB-231 [2] = experiment: Induction of cell cycle arrest in human MDA-MB-231 cells assessed as accumulation at G2/M phase at 1.25 to 5 uM incubated for 24 hrs by PI staining based flow cytometry; type: functional; conditions: dose 1.25-5 µM
MDA-MB-231 [3] = experiment: Induction of apoptosis in human MDA-MB-231 cells assessed as necrotic cells at 1.25 uM incubated for 24 hrs by Annexin V-FITC staining based flow cytometry (Rvb= 1.67%); type: functional
[4] = Toxicity in BALB/c nude mouse xenografted with human MDA-MB-231 cells assessed as inflammatory cell infiltration in liver at 15 mg/kg,ip every 2days for 20 days by Hematoxylin and Eosin staining based microscopy; type: organism-based; conditions: in vivo, 480 h, time 20 day
Aurora kinase A [5] = molecular target: T1, Aurora kinase A; experiment: Inhibition of recombinant human Aurora A (1 to 403 residues) expressed in Escherichia coli using STK-substrate 2-biotin as substrate incubated for 40 mins in presence of 0.48 uM ATP by HTRF assay
MDA-MB-231 [6] = experiment: Induction of apoptosis in human MDA-MB-231 cells assessed as early apoptotic cells at 2.5 uM incubated for 24 hrs by Annexin V-FITC staining based flow cytometry (Rvb= 3.3%); type: functional
Aurora kinase A [7] = molecular target: T1, Aurora kinase A; experiment: Inhibition of recombinant human Aurora A (1 to 403 residues) expressed in Escherichia coli using STK-substrate 2-biotin as substrate incubated for 40 mins in presence of 2.4uM ATP by HTRF assay
MDA-MB-231 [8] = experiment: Induction of apoptosis in human MDA-MB-231 cells assessed as late apoptotic cells at 1.25 uM incubated for 24 hrs by Annexin V-FITC staining based flow cytometry (Rvb= 6.90%); type: functional
Aurora kinase A [9] = molecular target: T1, Aurora kinase A; experiment: Inhibition of recombinant human Aurora A (1 to 403 residues) expressed in Escherichia coli using STK-substrate 2-biotin as substrate incubated for 15 mins in presence of 7.2uM ATP by HTRF assay
Aurora kinase A [10] = molecular target: T1, Aurora kinase A; experiment: Inhibition of recombinant human Aurora A (1 to 403 residues) expressed in Escherichia coli using STK-substrate 2-biotin as substrate incubated for 60 mins in presence of 24 uM ATP by HTRF assay
MDA-MB-231 [11] = experiment: Induction of apoptosis in human MDA-MB-231 cells assessed as early apoptotic cells at 1.25 uM incubated for 24 hrs by Annexin V-FITC staining based flow cytometry (Rvb= 3.3%); type: functional
Aurora kinase A [12] = molecular target: T1, Aurora kinase A; experiment: Inhibition of recombinant human Aurora A (1 to 403 residues) expressed in Escherichia coli using FAM-labeled peptide as substrate preincubated for 10 mins followed by substrate addition and measured after 20 mins in presence of ATP by HTRF assay
Aurora kinase A [13] = molecular target: T1, Aurora kinase A; experiment: Inhibition of recombinant human Aurora A (1 to 403 residues) expressed in Escherichia coli using STK-substrate 2-biotin as substrate incubated for 15 mins in presence of 2.4uM ATP by HTRF assay
MDA-MB-231 [14] = experiment: Induction of apoptosis in human MDA-MB-231 cells assessed as necrotic cells at 5 uM incubated for 24 hrs by Annexin V-FITC staining based flow cytometry (Rvb= 1.67%); type: functional
[15] = Toxicity in BALB/c nude mouse xenografted with human MDA-MB-231 cells assessed as parenchymal injury in liver at 15 mg/kg,ip every 2days for 20 days by Hematoxylin and Eosin staining based microscopy; type: organism-based; conditions: in vivo, 480 h, time 20 day
[16] = Toxicity in BALB/c nude mouse xenografted with human MDA-MB-231 cells assessed as parenchymal injury in heart at 15 mg/kg,ip every 2days for 20 days by Hematoxylin and Eosin staining based microscopy; type: organism-based; conditions: in vivo, 480 h, time 20 day
Aurora kinase A [17] = molecular target: T1, Aurora kinase A; experiment: Inhibition of recombinant human Aurora A (1 to 403 residues) expressed in Escherichia coli using STK-substrate 2-biotin as substrate incubated for 40 mins in presence of 7.2uM ATP by HTRF assay
[18] = Toxicity in BALB/c nude mouse xenografted with human MDA-MB-231 cells assessed as parenchymal injury in kidney at 15 mg/kg,ip every 2days for 20 days by Hematoxylin and Eosin staining based microscopy; type: organism-based; conditions: in vivo, 480 h, time 20 day
HeLa = experiment: Antiproliferative activity against human HeLa cells assessed as inhibition of cell proliferation incubated for 48 hrs by CCK-8 assay; type: functional, cell-based
Aurora kinase A [19] = molecular target: T1, Aurora kinase A; experiment: Inhibition of recombinant human Aurora A (1 to 403 residues) expressed in Escherichia coli using STK-substrate 2-biotin as substrate incubated for 60 mins in presence of 2.4uM ATP by HTRF assay
MDA-MB-231 [20] = experiment: Induction of apoptosis in human MDA-MB-231 cells assessed as late apoptotic cells at 2.5 uM incubated for 24 hrs by Annexin V-FITC staining based flow cytometry (Rvb= 6.90%); type: functional
MDA-MB-231 [21] = experiment: Induction of apoptosis in human MDA-MB-231 cells assessed as late apoptotic cells at 5 uM incubated for 24 hrs by Annexin V-FITC staining based flow cytometry (Rvb= 6.90%); type: functional
[22] = Metabolic stability in Sprague-Dawley rat liver microsomes assessed as elimination rate constant at 1.75 uM incubated upto 60 mins in presence of NADPH by LC-MS analysis; type: ADME, Microsome
Mus musculus = experiment: In vivo inhibition of Aurora signalling pathway in human MDA-MB-231 cells xenografted in BALB/c nude mouse assessed as decrease in Aurora A phosphorylation at Thr288 residue in tumor at 15 mg/kg,ip every 2days for 20 days by Western blot analysis; type: functional, organism-based; conditions: time 20.0 day
MDA-MB-231 [23] = experiment: Antitumor activity against human MDA-MB-231 cells xenografted in BALB/c nude mouse assessed as tumor growth inhibition at 15 mg/kg,ip every 2days for 20 days; type: functional; conditions: MDA-MB-231, 480 h, time 20 day, read-out: TGI
SJSA-1 = experiment: Antiproliferative activity against human SJSA-1 cells assessed as inhibition of cell proliferation incubated for 48 hrs by CCK-8 assay; type: functional, cell-based; conditions: SJSA-1, 48 h
[24] = molecular target: T2, Aurora kinase A (Homo sapiens) (UniProt O14965); experiment: Binding affinity to Aurora A in human MDA-MB-231 cells assessed as thermal stability at 46 to 62 degreeC at 1 uM incubated for 1 hrs by […] analysis; type: cell-based
T2 sequence (whole entry): T1 sequence (O14965 whole entry)

**Q.** What does the source list for `C=CC(=O)Nc1ccc(-c2nc(Nc3cc(C)[nH]n3)c3ccc(N4CCN(C)CC4)cc3n2)cc1`?
**A.** pIC50 (Aurora kinase A [1]): 8.28; Activity (MDA-MB-231 [2]): Dose-Dependent Effect; Activity (MDA-MB-231 [3]): 1.83%; Activity [4]: Non-Toxic; pIC50 (Aurora kinase A [5]): 8.81; Activity (MDA-MB-231 [6]): 17.7%; pIC50 (Aurora kinase A [7]): 8.56; Activity (MDA-MB-231 [8]): 18.1%; pIC50 (Aurora kinase A [9]): 8.36; pIC50 (Aurora kinase A [10]): 7.63; Activity (MDA-MB-231 [11]): 10.5%; pIC50 (Aurora kinase A [12]): 8.77; pIC50 (Aurora kinase A [13]): 8.40; Activity (MDA-MB-231 [14]): 0.27%; Activity [15]: Non-Toxic; Activity [16]: Non-Toxic; pIC50 (Aurora kinase A [17]): 8.29; Activity [18]: Non-Toxic; pIC50 (HeLa): 5.16; pIC50 (Aurora kinase A [19]): 8.41; Activity (MDA-MB-231 [20]): 21%; Activity (MDA-MB-231 [21]): 62.6%; k el at 1 h, 1.75 µM [22]: 0.000467 s⁻¹; inhibition (Mus musculus): Active; inhibition in vivo at 15 mg/kg (MDA-MB-231 [23]): 32.3%; pIC50 (SJSA-1): 5.37; Activity [24]: Active

Source: ChEMBL document CHEMBL5370554, “Discovery of a first-in-class Aurora A covalent inhibitor for the treatment of triple negative breast cancer” (Eur J Med Chem, 2023)
